Test results from ChEMBL document CHEMBL1275529, “Improved antimicrobial activity of linezolid against vancomycin-intermediate Staphylococcus aureus” (2008).
≈ marks a conversion by molar mass, not a printed value.

Tests used:
Staphylococcus aureus [1] = experiment: Antibacterial activity against vancomycin-intermediate Staphylococcus aureus BR1 after 24 hrs by Etest method; assay type: functional; settings: BR1, 24 h
Staphylococcus aureus [2] = experiment: Antibacterial activity against vancomycin-susceptible Staphylococcus aureus BR1 after 24 hrs by Etest method; assay type: functional; settings: BR1, 24 h
Staphylococcus aureus [3] = experiment: Antibacterial activity against vancomycin-intermediate Staphylococcus aureus LIM2 after 24 hrs by Etest method; assay type: functional; settings: LIM2, 24 h
Staphylococcus aureus [4] = experiment: Antibacterial activity against vancomycin-intermediate Staphylococcus aureus Mu50 phenotypic revertant after 24 hrs by Etest method; assay type: functional; settings: Mu50, 24 h
Staphylococcus aureus [5] = experiment: Antibacterial activity against vancomycin-susceptible Staphylococcus aureus 99/3700-W after 24 hrs by Etest method; assay type: functional
Staphylococcus aureus [6] = experiment: Antibacterial activity against vancomycin-intermediate Staphylococcus aureus BR2 after 24 hrs by Etest method; assay type: functional; settings: BR2, 24 h
Staphylococcus aureus [7] = experiment: Antibacterial activity against vancomycin-susceptible Staphylococcus aureus BR5-1 after 24 hrs by Etest method; assay type: functional; settings: BR5-1, 24 h
Staphylococcus aureus [8] = experiment: Antibacterial activity against vancomycin-susceptible Staphylococcus aureus N315-LR5-P1-1 assessed as inhibition of bacterial growth in Mueller-Hinton broth medium; assay type: functional
Staphylococcus aureus [9] = experiment: Antibacterial activity against vancomycin-intermediate Staphylococcus aureus BR5-1 phenotypic revertant after 24 hrs by Etest method; assay type: functional; settings: BR5-1, 24 h
Staphylococcus aureus [10] = experiment: Antibacterial activity against vancomycin-intermediate Staphylococcus aureus BR5-1 after 24 hrs by Etest method; assay type: functional; settings: BR5-1, 24 h
Staphylococcus aureus [11] = experiment: Antibacterial activity against vancomycin-susceptible Staphylococcus aureus N315-LR5-P1-4 assessed as inhibition of bacterial growth in Mueller-Hinton broth medium; assay type: functional
Staphylococcus aureus [12] = experiment: Antibacterial activity against vancomycin-susceptible Staphylococcus aureus N315-LR5-P1 assessed as inhibition of bacterial growth in brain heart infusion broth medium; assay type: functional
Staphylococcus aureus [13] = experiment: Antibacterial activity against vancomycin-susceptible Staphylococcus aureus 99/3759-V after 24 hrs by Etest method; assay type: functional
Staphylococcus aureus [14] = experiment: Antibacterial activity against vancomycin-intermediate Staphylococcus aureus Mu50 after 24 hrs by Etest method; assay type: functional; settings: Mu50, 24 h
Staphylococcus aureus [15] = experiment: Antibacterial activity against vancomycin-susceptible Staphylococcus aureus N315-LR5-P1-3 assessed as inhibition of bacterial growth in Mueller-Hinton broth medium; assay type: functional
Staphylococcus aureus [16] = experiment: Antibacterial activity against vancomycin-susceptible Staphylococcus aureus MI after 24 hrs by Etest method; assay type: functional
Staphylococcus aureus [17] = experiment: Antibacterial activity against vancomycin-intermediate Staphylococcus aureus NJ after 24 hrs by Etest method; assay type: functional
Staphylococcus aureus [18] = experiment: Antibacterial activity against vancomycin-susceptible Staphylococcus aureus N315-LR5-P1-4 assessed as inhibition of bacterial growth in brain heart infusion broth medium; assay type: functional; settings: N315-LR5-P1-4, Brain
Staphylococcus aureus [19] = experiment: Antibacterial activity against vancomycin-intermediate Staphylococcus aureus 28160 after 24 hrs by Etest method; assay type: functional; settings: Staphylococcus aureus, 28160, 24 h
Staphylococcus aureus [20] = experiment: Antibacterial activity against vancomycin-susceptible Staphylococcus aureus NJ after 24 hrs by Etest method; assay type: functional
Staphylococcus aureus [21] = experiment: Antibacterial activity against vancomycin-susceptible Staphylococcus aureus N315-LR5-P1 assessed as inhibition of bacterial growth in Mueller-Hinton broth medium; assay type: functional
Staphylococcus aureus [22] = experiment: Antibacterial activity against vancomycin-susceptible Staphylococcus aureus BR4 after 24 hrs by Etest method; assay type: functional; settings: BR4, 24 h
Staphylococcus aureus [23] = experiment: Antibacterial activity against vancomycin-intermediate Staphylococcus aureus BR4 after 24 hrs by Etest method; assay type: functional; settings: BR4, 24 h
Staphylococcus aureus [24] = experiment: Antibacterial activity against vancomycin-intermediate Staphylococcus aureus 99/3700-W phenotypic revertant after 24 hrs by Etest method; assay type: functional
Staphylococcus aureus [25] = experiment: Antibacterial activity against vancomycin-intermediate Staphylococcus aureus MI phenotypic revertant after 24 hrs by Etest method; assay type: functional
Staphylococcus aureus [26] = experiment: Antibacterial activity against vancomycin-intermediate Staphylococcus aureus 99/3700-W after 24 hrs by Etest method; assay type: functional
Staphylococcus aureus [27] = experiment: Antibacterial activity against vancomycin-intermediate Staphylococcus aureus LIM2 phenotypic revertant after 24 hrs by Etest method; assay type: functional; settings: LIM2, 24 h
Staphylococcus aureus [28] = experiment: Antibacterial activity against vancomycin-intermediate Staphylococcus aureus 99/3759-V after 24 hrs by Etest method; assay type: functional
Staphylococcus aureus [29] = experiment: Antibacterial activity against vancomycin-intermediate Staphylococcus aureus BR3 after 24 hrs by Etest method; assay type: functional; settings: BR3, 24 h
Staphylococcus aureus [30] = experiment: Antibacterial activity against vancomycin-intermediate Staphylococcus aureus BR1 phenotypic revertant after 24 hrs by Etest method; assay type: functional; settings: BR1, 24 h
Staphylococcus aureus [31] = experiment: Antibacterial activity against vancomycin-intermediate Staphylococcus aureus MI after 24 hrs by Etest method; assay type: functional
Staphylococcus aureus [32] = experiment: Antibacterial activity against vancomycin-susceptible Staphylococcus aureus AMC11094 after 24 hrs by Etest method; assay type: functional; settings: AMC11094, 24 h
Staphylococcus aureus [33] = experiment: Antibacterial activity against vancomycin-intermediate Staphylococcus aureus 99/3759-V phenotypic revertant after 24 hrs by Etest method; assay type: functional
Staphylococcus aureus [34] = experiment: Antibacterial activity against vancomycin-susceptible Staphylococcus aureus 28160 after 24 hrs by Etest method; assay type: functional; settings: Staphylococcus aureus, 28160, 24 h
Staphylococcus aureus [35] = experiment: Antibacterial activity against vancomycin-intermediate Staphylococcus aureus NJ phenotypic revertant after 24 hrs by Etest method
Staphylococcus aureus [36] = experiment: Antibacterial activity against vancomycin-intermediate Staphylococcus aureus PC after 24 hrs by Etest method
Staphylococcus aureus [37] = experiment: Antibacterial activity against vancomycin-susceptible Staphylococcus aureus N315-LR5-P1-2 assessed as inhibition of bacterial growth in brain heart infusion broth medium; settings: N315-LR5-P1-2, Brain
Staphylococcus aureus [38] = experiment: Antibacterial activity against vancomycin-intermediate Staphylococcus aureus AMC11094 after 24 hrs by Etest method; settings: AMC11094, 24 h
Staphylococcus aureus [39] = experiment: Antibacterial activity against vancomycin-intermediate Staphylococcus aureus IL after 24 hrs by Etest method
Staphylococcus aureus [40] = experiment: Antibacterial activity against vancomycin-susceptible Staphylococcus aureus Mu50 after 24 hrs by Etest method; settings: Mu50, 24 h
Staphylococcus aureus [41] = experiment: microbe, parasite or virus in culture; settings: Staphylococcus aureus, 28160, 24 h
Description: Antibacterial activity against vancomycin-intermediate Staphylococcus aureus 28160 phenotypic revertant after 24 hrs by Etest method

Row | Structure (SMILES) | MIC (Staphylococcus aureus [1]) [µg/mL] | MIC (Staphylococcus aureus [2]) [µg/mL] | MIC (Staphylococcus aureus [4]) [µg/mL] | MIC (Staphylococcus aureus [5]) [µg/mL] | MIC (Staphylococcus aureus [6]) [µg/mL] | MIC (Staphylococcus aureus [7]) [µg/mL] | MIC (Staphylococcus aureus [8]) [µg/mL] | MIC (Staphylococcus aureus [10]) [µg/mL] | MIC (Staphylococcus aureus [11]) [µg/mL] | MIC (Staphylococcus aureus [12]) [µg/mL] | MIC (Staphylococcus aureus [14]) [µg/mL] | MIC (Staphylococcus aureus [15]) [µg/mL] | MIC (Staphylococcus aureus [16]) [µg/mL] | MIC (Staphylococcus aureus [17]) [µg/mL] | MIC (Staphylococcus aureus [18]) [µg/mL] | MIC (Staphylococcus aureus [20]) [µg/mL] | MIC (Staphylococcus aureus [21]) [µg/mL] | MIC (Staphylococcus aureus [22]) [µg/mL] | MIC (Staphylococcus aureus [23]) [µg/mL] | MIC (Staphylococcus aureus [24]) [µg/mL] | other results
1 | CC(=O)NC[C@H]1CN(c2ccc(N3CCOCC3)c(F)c2)C(=O)O1 [LINEZOLID] | 1.25 (≈ 3.71 µM) | 1.5 (≈ 4.45 µM) | 1.5 (≈ 4.45 µM) | 3 (≈ 8.89 µM) | 1 (≈ 2.96 µM) | 3 (≈ 8.89 µM) | 2.5 (≈ 7.41 µM) | 1.5 (≈ 4.45 µM) | 1.5 (≈ 4.45 µM) | 3 (≈ 8.89 µM) | 0.38 (≈ 1.13 µM) | 1.75 (≈ 5.19 µM) | 3 (≈ 8.89 µM) | 1.25 (≈ 3.71 µM) | 1.5 (≈ 4.45 µM) | 3 (≈ 8.89 µM) | 3 (≈ 8.89 µM) | 3 (≈ 8.89 µM) | 1.5 (≈ 4.45 µM) | 1.25 (≈ 3.71 µM) | MIC (Staphylococcus aureus [3]): 1 µg/mL (≈ 2.96 µM); MIC (Staphylococcus aureus [9]): 3 µg/mL (≈ 8.89 µM); MIC (Staphylococcus aureus [13]): 3 µg/mL (≈ 8.89 µM); MIC (Staphylococcus aureus [19]): 1.5 µg/mL (≈ 4.45 µM); MIC (Staphylococcus aureus [25]): 1.5 µg/mL (≈ 4.45 µM); MIC (Staphylococcus aureus [26]): 1 µg/mL (≈ 2.96 µM); MIC (Staphylococcus aureus [27]): 1.5 µg/mL (≈ 4.45 µM); MIC (Staphylococcus aureus [28]): 1 µg/mL (≈ 2.96 µM); MIC (Staphylococcus aureus [29]): 1 µg/mL (≈ 2.96 µM); MIC (Staphylococcus aureus [30]): 1.5 µg/mL (≈ 4.45 µM); MIC (Staphylococcus aureus [31]): 1.5 µg/mL (≈ 4.45 µM); MIC (Staphylococcus aureus [32]): 3 µg/mL (≈ 8.89 µM); MIC (Staphylococcus aureus [33]): 1.5 µg/mL (≈ 4.45 µM); MIC (Staphylococcus aureus [34]): 3 µg/mL (≈ 8.89 µM)
2 | CN[C@H](CC(C)C)C(=O)N[C@H]1C(=O)N[C@@H](CC(N)=O)C(=O)N[C@H]2C(=O)N[C@H]3C(=O)N[C@H](C(=O)N[C@H](C(=O)O)c4cc(O)cc(O)c4-c4cc3ccc4O)[C@H](O)c3ccc(c(Cl)c3)Oc3cc2cc(c3O[C@@H]2O[C@H](CO)[C@@H](O)[C@H](O)[C@H]2O[C@H]2C[C@](C)(N)[C@H](O)[C@H](C)O2)Oc2ccc(cc2Cl)[C@H]1O [VANCOMYCIN] | 6 (≈ 4.14 µM) | 1.5 (≈ 1.04 µM) | 8 (≈ 5.52 µM) | 1.5 (≈ 1.04 µM) | 6 (≈ 4.14 µM) | 1.25 (≈ 0.863 µM) | 1.25 (≈ 0.863 µM) | 5 (≈ 3.45 µM) | 3 (≈ 2.07 µM) | 1.25 (≈ 0.863 µM) | 6 (≈ 4.14 µM) | 2.5 (≈ 1.73 µM) | 1.25 (≈ 0.863 µM) | 8 (≈ 5.52 µM) | 5 (≈ 3.45 µM) | 3 (≈ 2.07 µM) | 0.75 (≈ 0.518 µM) | 1.5 (≈ 1.04 µM) | 6 (≈ 4.14 µM) | 3 (≈ 2.07 µM) | MIC (Staphylococcus aureus [35]): 5 µg/mL (≈ 3.45 µM); MIC (Staphylococcus aureus [36]): 6 µg/mL (≈ 4.14 µM); MIC (Staphylococcus aureus [37]): 3 µg/mL (≈ 2.07 µM); MIC (Staphylococcus aureus [38]): 6 µg/mL (≈ 4.14 µM); MIC (Staphylococcus aureus [39]): 6 µg/mL (≈ 4.14 µM); MIC (Staphylococcus aureus [40]): 2.5 µg/mL (≈ 1.73 µM); MIC (Staphylococcus aureus [28]): 5 µg/mL (≈ 3.45 µM); MIC (Staphylococcus aureus [29]): 8 µg/mL (≈ 5.52 µM); MIC (Staphylococcus aureus [30]): 3 µg/mL (≈ 2.07 µM); MIC (Staphylococcus aureus [31]): 8 µg/mL (≈ 5.52 µM); MIC (Staphylococcus aureus [33]): 8 µg/mL (≈ 5.52 µM); MIC (Staphylococcus aureus [41]): 3 µg/mL (≈ 2.07 µM)
